Experiments:
Type in all cases: cell-based
[1] = system: Ba/F3 cells expressing L858R/T790M/C797S (EGFR-LTC); test: Growth inhibition (GI50) of Ba/F3 cells expressing L858R/T790M/C797S (EGFR-LTC), Celltiter glo
How it was run: (§1)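 Ba/F3 cells carrying each EGFR variant were plated at 100,000 cells/ml; after 4 h, compound was added as 10-point 4-fold dilutions (top stock 2 mM, 0.5% DMSO). After 72 h at 37 °C, viability was read by CellTiter-Glo; GI50 is the molar concentration (μM) giving 50% growth inhibition.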

[2] = system: Ba/F3 cells expressing EGFR-wt; test: Growth inhibition (GI50) of Ba/F3 cells expressing EGFR-wt, Celltiter glo
How it was run: as §1

[3] = system: Ba/F3 cells expressing del19/T790M (EGFR-DT); test: Growth inhibition (GI50) of Ba/F3 cells expressing del19/T790M (EGFR-DT), Celltiter glo
Protocol: (§2) In this experimental example, a determination was made as to whether the compounds prepared in Examples 1-283 have the ability to inhibit the growth of Ba/F3 cells expressing EGFR-wt, del19/T790M/C797S (EGFR-DTC), L858R/T790M/C797S (EGFR-LTC), del19/T790M (EGFR-DT), and L858R/T790M (EGFR-LT) variants.
(§3) The parental Ba/F3 cell line is a population of cells that are not introduced with EGFR variants. Specifically, 100 μl of a cell line expressing each variant was plated in a 96-well plate at a density of 100,000 cells/ml. 10-point, 4-fold serial dilutions of each compound were prepared, starting at 2 mM. After 4 h, 0.5 μl of the compound (0.5% DMSO) was added, followed by incubation at 37° C. and 5% CO2 for 72 h. After incubation, the number of viable cells was measured using a Celltiter glo assay kit (Promega) and the GI50 of the compound was determined. The term “GI50” refers to the molar concentration (μM) of the compound required for 50% growth inhibition of cells.

[4] = system: parental Ba/F3 cell line; test: Growth inhibition (GI50) of the parental Ba/F3 cell line (not introduced with EGFR variants), Celltiter glo; details: parental Ba/F3 cells
How it was run: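 Parental Ba/F3 cells (100,000 cells/ml) were treated with 10-point, 4-fold compound dilutions (0.5% DMSO; top stock 2 mM) for 72 h at 37 °C, 5% CO2. Viability was read by CellTiter-Glo; GI50 is the concentration (μM) giving 50% growth inhibition.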

[5] = system: Ba/F3 cells expressing L858R/T790M (EGFR-LT); test: Growth inhibition (GI50) of Ba/F3 cells expressing L858R/T790M (EGFR-LT), Celltiter glo
Protocol: as §2, §3

[6] = system: Ba/F3 cells expressing del19/T790M/C797S (EGFR-DTC); test: Growth inhibition (GI50) of Ba/F3 cells expressing del19/T790M/C797S (EGFR-DTC), Celltiter glo
How it was run: as §1

Row | Structure (SMILES) | GI50 ([1]; Mus musculus, BaF3, 72 h) [nM] | GI50 ([2]; Mus musculus, BaF3, 72 h) [nM] | GI50 ([3]; Mus musculus, BaF3, 72 h) [nM] | GI50 ([4]; Mus musculus, BaF3, 72 h) [nM] | GI50 ([5]; Mus musculus, BaF3, 72 h) [nM] | GI50 ([6]; Mus musculus, BaF3, 72 h) [nM] | GI50 ([1]; 72 h) [nM] | GI50 ([2]; 72 h) [nM] | GI50 ([3]; 72 h) [nM] | GI50 ([4]; 72 h) [nM] | GI50 ([5]; 72 h) [nM] | GI50 ([6]; 72 h) [nM]
1 | CN(C)CCCn1cc(Nc2ncc(Cl)c(Nc3cc(Cl)ccc3NS(C)(=O)=O)n2)cn1 [Example 167, N-(4-chloro-2-((5-chloro-2-((1-(3-(dimethylamino)propyl)-1H-pyrazol-4-yl)amino)pyrimidine-4-yl)amino)phenyl)methanesulfonamide] | 2000 to 10000 | 500 to 2000 | 2000 to 10000 | 2000 to 10000 | 2000 to 10000 | 100 to 500 |  |  |  |  |  | 
2 | COc1cc(N2CCC(N3CCN(C)CC3)CC2)c(Br)cc1Nc1ncc(Cl)c(Nc2cc3c(cc2NS(C)(=O)=O)CCO3)n1 [Example 270, N-(6-((2-((5-Bromo-2-methoxy-4-(4-(4-methylpiperazin-1-yl)piperidin-1-yl)phenyl)amino)-5-chloropyrimidin-4-yl)amino)-2,3-dihydrobenzofuran-5-yl)methanesulfonamide] | 1 to 25 | 500 to 2000 | 1 to 25 | 500 to 2000 | 1 to 25 | 1 to 25 |  |  |  |  |  | 
3 | CCc1cc(Nc2ncc(Br)c(Nc3cc4c(cc3NS(C)(=O)=O)CCO4)n2)c(OC)cc1N1CCC(N2CCN(C)CC2)CC1 [Example 184, N-(6-((5-bromo-2-((5-ethyl-2-methoxy-4-(4-(4-methylpiperazin-1-yl)piperidin-1-yl)phenyl)amino)pyrimidin-4-yl)amino)-2,3-dihydrobenzofuran-5-yl)methanesulfonamide] | 1 to 25 | 25 to 100 | 1 to 25 | 500 to 2000 | 1 to 25 | 100 to 500 |  |  |  |  |  | 
4 | COc1cc(N2CCC(N3CCN(C)CC3)CC2)c(C)cc1Nc1ncc(Br)c(Nc2ccc3nccnc3c2P(C)(C)=O)n1 [TQB-3804] |  |  |  |  |  |  | 25 to 100 | 500 to 2000 | 100 to 500 | 500 to 2000 | 100 to 500 | 25 to 100
5 | COc1cc(N2CCC(N3CCN(C(F)(F)F)CC3)CC2)c(C)cc1Nc1ncc(Cl)c(Nc2cc3c(cc2NS(C)(=O)=O)CCO3)n1 [Example 225, N-(6-((5-chloro-2-((2-methoxy-5-methyl-4-(4-(4-(trifluoromethyl)piperazin-1-yl)piperidin-1-yl)phenyl)amino)pyrimidin-4-yl)amino)-2,3-dihydrobenzofuran-5-yl)methanesulfonamide] | 25 to 100 | 500 to 2000 | 25 to 100 | 2000 to 10000 | 25 to 100 | 1 to 25 |  |  |  |  |  | 
6 | Cc1cc(Nc2ncc(Br)c(Nc3cc4c(cc3NS(C)(=O)=O)CCO4)n2)c(Cl)cc1N1CCC(N2CCN(C)CC2)CC1 [Example 175, N-(6-((5-bromo-2-((2-chloro-5-methyl-4-(4-(4-methylpiperazin-1-yl)piperidin-1-yl)phenyl)amino)pyrimidin-4-yl)amino)-2,3-dihydrobenzofuran-5-yl)methanesulfonamide] | 25 to 100 | 500 to 2000 | 100 to 500 | > 10000 | 100 to 500 | 25 to 100 |  |  |  |  |  | 
7 | COc1cc(N2CCC(N3CCN(C(F)(F)F)CC3)CC2)c(C)cc1Nc1ncc(Br)c(Nc2cc3c(cc2N(C)S(C)(=O)=O)CCO3)n1 [Example 255, N-(6-((5-bromo-2-((2-methoxy-5-methyl-4-(4-(4-(trifluoromethyl)piperazin-1-yl)piperidin-1-yl)phenyl)amino)pyrimidin-4-yl)amino)-2,3-dihydrobenzofuran-5-yl)-N-methylmethanesulfonamide] | 100 to 500 | 2000 to 10000 | 25 to 100 | 2000 to 10000 | 100 to 500 | 25 to 100 |  |  |  |  |  | 
8 | COc1ccc(NS(C)(=O)=O)c(Nc2nc(Nc3cc(C)c(N4CCC(N5CCCN(C)CC5)CC4)cc3OC)ncc2Cl)c1 [Example 204, N-(2-((5-chloro-2-((2-methoxy-5-methyl-4-(4-(4-methyl-1,4-diazepan-1-yl)piperidin-1-yl)phenyl)amino)pyrimidin-4-yl)amino)-4-methoxyphenyl)methanesulfonamide] | 25 to 100 | 25 to 100 | 1 to 25 | 2000 to 10000 | 25 to 100 | 1 to 25 |  |  |  |  |  | 
9 | COc1cc(N2CCC(N3CCCN(C)CC3)CC2)c(C)cc1Nc1ncc(Cl)c(Nc2cc3c(cc2NS(C)(=O)=O)CCO3)n1 [Example 165, N-(6-((5-chloro-2-((2-methoxy-5-methyl-4-(4-(4-methyl-1,4-diazepan-1-yl)piperidin-1-yl)phenyl)amino)pyrimidin-4-yl)amino)-2,3-dihydrobenzofuran-5-yl)methanesulfonamide] | 25 to 100 | 500 to 2000 | 25 to 100 | 2000 to 10000 | 25 to 100 | 25 to 100 |  |  |  |  |  | 
10 | COc1cc(N2CCC(N3CCN(C)CC3)CC2)c(C)cc1Nc1ncc(Cl)c(Nc2cc3c(cc2NS(C)(=O)=O)CCN3C)n1 [Example 276, N-(6-((5-chloro-2-((2-methoxy-5-methyl-4-(4-(4-methylpiperazin-1-yl)piperidin-1-yl)phenyl)amino)pyrimidin-4-yl)amino)-1-methylindolin-5-yl)methanesulfonamide] | 100 to 500 | 500 to 2000 | 25 to 100 | 2000 to 10000 | 100 to 500 | 100 to 500 |  |  |  |  |  | 
11 | CN1CCN(C2CCN(c3ccc4cc(Nc5ncc(Br)c(Nc6cc7c(cc6NS(C)(=O)=O)CCO7)n5)ccc4n3)CC2)CC1 [Example 247, N-(6-((5-bromo-2-((2-(4-(4-methylpiperazin-1-yl)piperidin-1-yl)quinolin-6-yl)amino)pyrimidin-4-yl)amino)-2,3-dihydrobenzofuran-5-yl)methanesulfonamide] | 100 to 500 | 500 to 2000 | 25 to 100 | 2000 to 10000 | 100 to 500 | 100 to 500 |  |  |  |  |  | 
12 | COc1cc(N2CCC(N3CCN(C)CC3)CC2)c(Cl)cc1Nc1ncc(Br)c(Nc2cc3c(cc2NS(C)(=O)=O)CCO3)n1 [Example 183, N-(6-((5-bromo-2-((5-chloro-2-methoxy-4-(4-(4-methylpiperazin-1-yl)piperidin-1-yl)phenyl)amino)pyrimidin-4-yl)amino)-2,3-dihydrobenzofuran-5-yl)methanesulfonamide] | 1 to 25 | 1 to 25 | 1 to 25 | 25 to 100 | 1 to 25 | 1 to 25 |  |  |  |  |  | 
13 | COc1cc(N2CCC(N3CCN(C)CC3)CC2)c(Cl)cc1Nc1ncc(Br)c(Nc2ccc3nccnc3c2P(C)(C)=O)n1 [Example 194, (6-((5-bromo-2-((5-chloro-2-methoxy-4-(4-(4-methylpiperazin-1-yl)piperidin-1-yl)phenyl)amino)pyrimidin-4-yl)amino)quinoxalin-5-yl)dimethylphosphine oxide] | 25 to 100 | 100 to 500 | 25 to 100 | 100 to 500 | 100 to 500 | 25 to 100 |  |  |  |  |  | 
14 | COc1ccc(NS(C)(=O)=O)c(Nc2nc(Nc3ccc(N4CCC(N5CCN(C)CC5)CC4)cc3OC)ncc2Cl)c1 [Example 231, N-(2-((5-chloro-2-((2-methoxy-4-(4-(4-methylpiperazin-1-yl)piperidin-1-yl)phenyl)amino)pyrimidin-4-yl)amino)-4-methoxyphenyl)methanesulfonamide] | 100 to 500 | 2000 to 10000 | 100 to 500 | 2000 to 10000 | 100 to 500 | 100 to 500 |  |  |  |  |  | 

— US20240228458A1, “PYRIMIDINE DERIVATIVE HAVING PROTEIN KINASE INHIBITORY ACTIVITY, AND THERAPEUTIC PHARMACEUTICAL COMPOSITION COMPRISING SAME” (THERAPEX CO., LTD., priority 2021, published 2024)
